Laboratory results taken from patent publication US8927717B1, “Thiochromeno[2,3-c]quinolin-12-one derivatives, preparation method and application thereof” (National Defense Medical Center, priority 2014, dated 2015).
pIC50: −log10 of the molar value.

Legend:
[1] = target: T1, TOP II (Topoisomerase II) (Homo sapiens, UniProt P11388); assay: TOP II-catalyzed relaxation of plasmid DNA assay; format: biochemical; settings: for pIC50: five different concentrations, TopoGEN TG2005H, TG-2000H-1, read-out: IC50 value, TOP II mediated supercoiled DNA relaxation; for inhibitory effect in TOP II relaxation assay compared with VP-16: primary assay at 25 and/or 50 μM
T1 construct: purchased TopoGEN TG-2000H-1
T1 sequence (P11388 whole entry): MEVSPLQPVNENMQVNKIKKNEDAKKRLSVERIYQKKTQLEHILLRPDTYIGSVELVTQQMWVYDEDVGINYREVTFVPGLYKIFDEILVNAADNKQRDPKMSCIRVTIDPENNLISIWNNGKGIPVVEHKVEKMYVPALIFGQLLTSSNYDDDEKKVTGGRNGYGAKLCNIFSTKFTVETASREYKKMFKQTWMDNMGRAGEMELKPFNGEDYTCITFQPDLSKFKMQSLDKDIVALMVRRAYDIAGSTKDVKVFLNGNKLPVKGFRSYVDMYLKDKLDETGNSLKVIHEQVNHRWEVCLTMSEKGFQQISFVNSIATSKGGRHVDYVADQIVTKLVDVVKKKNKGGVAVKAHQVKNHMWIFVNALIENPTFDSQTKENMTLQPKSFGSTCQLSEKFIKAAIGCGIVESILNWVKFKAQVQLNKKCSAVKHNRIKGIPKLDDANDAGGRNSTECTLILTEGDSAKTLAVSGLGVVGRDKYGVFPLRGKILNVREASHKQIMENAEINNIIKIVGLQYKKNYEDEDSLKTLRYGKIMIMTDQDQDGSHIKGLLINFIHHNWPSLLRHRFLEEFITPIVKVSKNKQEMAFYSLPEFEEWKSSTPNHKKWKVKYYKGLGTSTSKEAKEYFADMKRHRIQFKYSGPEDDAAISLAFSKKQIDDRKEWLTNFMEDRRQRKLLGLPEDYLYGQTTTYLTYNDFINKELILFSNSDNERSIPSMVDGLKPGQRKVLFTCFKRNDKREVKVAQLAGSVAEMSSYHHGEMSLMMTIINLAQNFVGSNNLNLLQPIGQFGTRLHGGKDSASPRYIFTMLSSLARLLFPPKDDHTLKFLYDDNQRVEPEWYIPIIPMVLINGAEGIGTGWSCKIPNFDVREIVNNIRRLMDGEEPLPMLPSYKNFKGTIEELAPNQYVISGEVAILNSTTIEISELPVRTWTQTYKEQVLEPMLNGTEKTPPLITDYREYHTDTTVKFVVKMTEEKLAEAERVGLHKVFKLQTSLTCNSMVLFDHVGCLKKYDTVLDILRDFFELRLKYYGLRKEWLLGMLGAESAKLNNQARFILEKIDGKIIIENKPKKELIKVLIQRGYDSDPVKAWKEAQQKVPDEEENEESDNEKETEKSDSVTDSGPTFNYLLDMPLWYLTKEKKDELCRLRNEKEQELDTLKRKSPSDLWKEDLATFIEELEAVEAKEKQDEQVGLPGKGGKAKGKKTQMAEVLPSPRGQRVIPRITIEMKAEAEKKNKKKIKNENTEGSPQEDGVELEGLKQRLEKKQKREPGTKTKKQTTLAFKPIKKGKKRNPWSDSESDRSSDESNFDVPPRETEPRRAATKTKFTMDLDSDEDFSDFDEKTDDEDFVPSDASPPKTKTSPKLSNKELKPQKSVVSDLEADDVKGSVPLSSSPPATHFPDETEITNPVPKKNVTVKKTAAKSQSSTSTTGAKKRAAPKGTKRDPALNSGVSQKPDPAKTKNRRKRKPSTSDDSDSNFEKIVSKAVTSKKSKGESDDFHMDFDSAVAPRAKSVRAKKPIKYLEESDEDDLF
Description: We also performed TOP II-catalyzed relaxation of plasmid DNA assays (FIG. 5-7) to evaluate if compounds could inhibit TOP II. […] The IC50 value of compounds 7, N7, N8, N14, N15, N18, and N19 were about 10, 10, 1, 10, 5, 1, and 1 μM, respectively (detect by TopoGEN TG2005H, TG-2000H-1).

TOP I (Topoisomerase I) [2] = target: T2, TOP I (Topoisomerase I) (Homo sapiens, UniProt P11387); assay: TOP I mediated supercoiled DNA relaxation assay; format: biochemical; settings: five different concentrations; TopoGEN TG2005H, TG-2000H-1
T2 construct: purchased TopoGEN TG2005H
T2 sequence (P11387 1-765): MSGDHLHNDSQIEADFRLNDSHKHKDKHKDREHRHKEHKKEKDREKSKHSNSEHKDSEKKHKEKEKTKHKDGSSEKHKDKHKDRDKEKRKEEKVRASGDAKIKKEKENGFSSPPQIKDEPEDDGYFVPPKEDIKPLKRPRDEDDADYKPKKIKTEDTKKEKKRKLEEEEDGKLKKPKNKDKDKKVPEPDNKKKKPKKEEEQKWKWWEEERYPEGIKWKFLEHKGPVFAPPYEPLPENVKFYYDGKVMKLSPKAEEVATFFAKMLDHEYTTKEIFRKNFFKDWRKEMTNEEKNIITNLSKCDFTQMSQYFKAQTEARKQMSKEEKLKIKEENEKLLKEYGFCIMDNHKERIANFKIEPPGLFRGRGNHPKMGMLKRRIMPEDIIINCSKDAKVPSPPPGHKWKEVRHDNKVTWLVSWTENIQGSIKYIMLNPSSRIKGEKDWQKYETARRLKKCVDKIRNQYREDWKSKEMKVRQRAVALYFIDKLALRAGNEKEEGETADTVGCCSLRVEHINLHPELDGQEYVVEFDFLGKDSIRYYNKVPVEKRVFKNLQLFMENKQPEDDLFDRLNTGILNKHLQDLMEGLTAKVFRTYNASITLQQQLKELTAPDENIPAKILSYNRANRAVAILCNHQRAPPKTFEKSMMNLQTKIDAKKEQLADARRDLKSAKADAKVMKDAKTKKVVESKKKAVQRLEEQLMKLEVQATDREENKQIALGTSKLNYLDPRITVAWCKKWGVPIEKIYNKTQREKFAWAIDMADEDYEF

TOP I (Topoisomerase I) [3] = target: T2, TOP I (Topoisomerase I); assay: TOP I mediated supercoiled DNA relaxation assay; format: biochemical; settings: primary assay at 25 and/or 50 μM
Description: According to the cell cytotoxicity, compounds 5, 7, 8, 16, 19, N2, N7, N8, N9, N14-N19, and N25 were also selected for primary TOP I and II activities assays at 25 and/or 50 μM (FIG. 2-4).

HL-60(TB) = format: cell-based; settings: Leukemia; 10^−5 molar; 48 hours; SRB
NCI-H226 = format: cell-based; settings: Non-small cell lung cancer; 10^−5 molar; 48 hours; SRB
T-47D = format: cell-based; settings: Breast cancer; 10^−5 molar; 48 hours; SRB
SK-OV-3 = format: cell-based; settings: Ovarian cancer; 10^−5 molar; 48 hours; SRB
COLO 205 = format: cell-based; settings: Colon cancer; 10^−5 molar; 48 hours; SRB
TK-10 = format: cell-based; settings: Renal cancer; 10^−5 molar; 48 hours; SRB
NCI-H23 = format: cell-based; settings: Non-small cell lung cancer; 10^−5 molar; 48 hours; SRB
KM12 = assay: cells; format: cell-based; settings: Colon cancer; 10^−5 molar; 48 hours; SRB
OVCAR-8 = format: cell-based; settings: Ovarian cancer; 10^−5 molar; 48 hours; SRB
PC-3 = format: cell-based; settings: Prostate cancer; 10^−5 molar; 48 hours; SRB
OVCAR-4 = format: cell-based; settings: Ovarian cancer; 10^−5 molar; 48 hours; SRB
OVCAR-5 = format: cell-based; settings: Ovarian cancer; 10^−5 molar; 48 hours; SRB
786-0 = format: cell-based; settings: Renal cancer; 10^−5 molar; 48 hours; SRB
NCI/ADR-RES = format: cell-based; settings: Ovarian cancer; 10^−5 molar; 48 hours; SRB
U251 = format: cell-based; settings: CNS cancer; 10^−5 molar; 48 hours; SRB
SF-539 = format: cell-based; settings: CNS cancer; 10^−5 molar; 48 hours; SRB
LOX IMVI = format: cell-based; settings: Melanoma; 10^−5 molar; 48 hours; SRB
HCT-116 = format: cell-based; settings: Colon cancer; 10^−5 molar; 48 hours; SRB
MDA-MB-231/ATCC = format: cell-based; settings: Breast cancer; 10^−5 molar; 48 hours; SRB
RXF 393 = format: cell-based; settings: Renal cancer; 10^−5 molar; 48 hours; SRB
BT-549 = format: cell-based; settings: Breast cancer; 10^−5 molar; 48 hours; SRB
RPMI-8226 = format: cell-based; settings: Leukemia; 10^−5 molar; 48 hours; SRB
DU-145 = format: cell-based; settings: Prostate cancer; 10^−5 molar; 48 hours; SRB
NCI-H460 = format: cell-based; settings: Non-small cell lung cancer; 10^−5 molar; 48 hours; SRB
CCRF-CEM = format: cell-based; settings: Leukemia; 10^−5 molar; 48 hours; SRB
CAKI-1 = format: cell-based; settings: Renal cancer; 10^−5 molar; 48 hours; SRB
UACC-62 = format: cell-based; settings: Melanoma; 10^−5 molar; 48 hours; SRB
60 cancer cell lines = assay: NCI 60-cell screen, SRB, whole panel (mean, delta, range); format: cell-based; settings: 10^−5 molar, 48 hours, SRB
SNB-75 = format: cell-based; settings: CNS cancer; 10^−5 molar; 48 hours; SRB
HCC-2998 = format: cell-based; settings: Colon cancer; 10^−5 molar; 48 hours; SRB
IGROV1 = format: cell-based; settings: Ovarian cancer; 10^−5 molar; 48 hours; SRB
M14 = format: cell-based; settings: Melanoma; 10^−5 molar; 48 hours; SRB
MCF7 = format: cell-based; settings: Breast cancer; 10^−5 molar; 48 hours; SRB
MOLT-4 = format: cell-based; settings: Leukemia; 10^−5 molar; 48 hours; SRB
MDA-MB-486 = format: cell-based; settings: Breast cancer; 10^−5 molar; 48 hours; SRB
SF-268 = format: cell-based; settings: CNS cancer; 10^−5 molar; 48 hours; SRB
A498 = format: cell-based; settings: Renal cancer; 10^−5 molar; 48 hours; SRB
UO-31 = format: cell-based; settings: Renal cancer; 10^−5 molar; 48 hours; SRB
SK-MEL-5 = format: cell-based; settings: Melanoma; 10^−5 molar; 48 hours; SRB
HOP-92 = format: cell-based; settings: Non-small cell lung cancer; 10^−5 molar; 48 hours; SRB
K-562 = format: cell-based; settings: Leukemia; 10^−5 molar; 48 hours; SRB
HS 578T = format: cell-based; settings: Breast cancer; 10^−5 molar; 48 hours; SRB
SNB-19 = format: cell-based; settings: CNS cancer; 10^−5 molar; 48 hours; SRB
HCT-15 = format: cell-based; settings: Colon cancer; 10^−5 molar; 48 hours; SRB
UACC-257 = format: cell-based; settings: Melanoma; 10^−5 molar; 48 hours; SRB
SK-MEL-2 = format: cell-based; settings: Melanoma; 10^−5 molar; 48 hours; SRB
SN12C = format: cell-based; settings: Renal cancer; 10^−5 molar; 48 hours; SRB
SW-620 = format: cell-based; settings: Colon cancer; 10^−5 molar; 48 hours; SRB
HT29 = format: cell-based; settings: Colon cancer; 10^−5 molar; 48 hours; SRB
SK-MEL-28 = format: cell-based; settings: Melanoma; 10^−5 molar; 48 hours; SRB
MDA-MB-435 = format: cell-based; settings: Melanoma; 10^−5 molar; 48 hours; SRB
OVCAR-3 = format: cell-based; settings: Ovarian cancer; 10^−5 molar; 48 hours; SRB
NCI-H522 = format: cell-based; settings: Non-small cell lung cancer; 10^−5 molar; 48 hours; SRB
MALME-3M = format: cell-based; settings: Melanoma; 10^−5 molar; 48 hours; SRB
ACHN = format: cell-based; settings: Renal cancer; 10^−5 molar; 48 hours; SRB
SR = format: cell-based; settings: Leukemia; 10^−5 molar; 48 hours; SRB
A549/ATCC = format: cell-based; settings: Non-small cell lung cancer; 10^−5 molar; 48 hours; SRB
HOP-62 = format: cell-based; settings: Non-small cell lung cancer; 10^−5 molar; 48 hours; SRB
SF-295 = format: cell-based; settings: CNS cancer; 10^−5 molar; 48 hours; SRB

Compound: CCN(CC)CCNc1nc2ccccc2c2c(=O)c3cc(Cl)ccc3sc12 [Compound N8, 10-Chloro-6-((2-(diethylamino)ethyl)amino)-12H-thiochromeno[2,3-c]quinolin-12-one]
- melting point: 152 to 153 °C
- pIC50 [1]: ~6.00
- inhibitory effect in TOP II relaxation assay compared with VP-16 [1]: more potent inhibitory effects than the positive agent VP-16

Compound: O=c1c2cc(Cl)ccc2sc2c(NCCNCCO)nc3ccccc3c12 [Compound N15, 10-Chloro-6-((2-((2-hydroxyethyl)amino)ethyl)amino)-12H-thiochromeno[2,3-c]quinolin-12-one]
- pIC50 (TOP I (Topoisomerase I) [2]): ~5.30
- melting point: 141 to 143 °C
- pIC50 [1]: ~5.30
- inhibitory effect in TOP II relaxation assay compared with VP-16 [1]: more potent inhibitory effects than the positive agent VP-16
- inhibitory effect in TOP I activity assay compared with CPT (TOP I (Topoisomerase I) [3]): more potent inhibitory effects than CPT

Compound: CCN(CC)CCCNc1nc2ccccc2c2c(=O)c3cc(Cl)ccc3sc12 [Compound N18, 10-Chloro-6-((3-(diethylamino)propyl)amino)-12H-thiochromeno[2,3-c]quinolin-12-one]
- pIC50 (TOP I (Topoisomerase I) [2]): ~4.60
- melting point: 142 to 143 °C
- pIC50 [1]: ~6.00
- inhibitory effect in TOP II relaxation assay compared with VP-16 [1]: more potent inhibitory effects than the positive agent VP-16
- inhibitory effect in TOP I activity assay compared with CPT (TOP I (Topoisomerase I) [3]): more potent inhibitory effects than CPT

Compound: O=c1c2cc(Cl)ccc2sc2c(N3CCN(Cc4ccccc4)CC3)nc3ccccc3c12 [Compound 11, 6-(4-Benzylpiperazin-1-yl)-10-chloro-12H-thiochromeno[2,3-c]quinolin-12-one]
- Growth percent HL-60(TB) (HL-60(TB)): 100.96%
- Growth percent NCI-H226 (NCI-H226): 88.98%
- Growth percent T-47D (T-47D): 89.22%
- Growth percent SK-OV-3 (SK-OV-3): 94.79%
- Growth percent COLO 205 (COLO 205): 105.64%
- Growth percent TK-10 (TK-10): 124.99%
- Growth percent NCI-H23 (NCI-H23): 89.94%
- Growth percent KM12 (KM12): 107.75%
- Growth percent OVCAR-8 (OVCAR-8): 98.54%
- Growth percent PC-3 (PC-3): 89.12%
- Growth percent OVCAR-4 (OVCAR-4): 102.43%
- Growth percent OVCAR-5 (OVCAR-5): 111.92%
- Growth percent 786-0 (786-0): 105.57%
- Growth percent NCI/ADR-RES (NCI/ADR-RES): 98.31%
- Growth percent U251 (U251): 96.69%
- Growth percent SF-539 (SF-539): 108.56%
- Growth percent LOX IMVI (LOX IMVI): 94.22%
- Growth percent HCT-116 (HCT-116): 98.59%
- Growth percent MDA-MB-231/ATCC (MDA-MB-231/ATCC): 89.11%
- Growth percent RXF 393 (RXF 393): 100.71%
- Growth percent BT-549 (BT-549): 114.05%
- Growth percent RPMI-8226 (RPMI-8226): 96.63%
- Growth percent DU-145 (DU-145): 111.61%
- Growth percent NCI-H460 (NCI-H460): 95.57%
- Growth percent CCRF-CEM (CCRF-CEM): 95.42%
- Growth percent CAKI-1 (CAKI-1): 94.03%
- Growth percent UACC-62 (UACC-62): 96.00%
- Growth percent, Delta (60 cancer cell lines; delta over the cell panel): 31.28%
- Growth percent, Mean (60 cancer cell lines; mean over the cell panel): 96.19%
- Growth percent, Range (60 cancer cell lines; range over the cell panel): 60.08%
- Growth percent SNB-75 (SNB-75): 82.62%
- Growth percent HCC-2998 (HCC-2998): 99.32%
- Growth percent IGROV1 (IGROV1): 93.49%
- Growth percent M14 (M14): 93.00%
- Growth percent MCF7 (Table 2: MCF) (MCF7): 68.32%
- Growth percent MOLT-4 (MOLT-4): 90.91%
- Growth percent MDA-MB-486 (MDA-MB-486): 98.53%
- Growth percent SF-268 (SF-268): 100.42%
- Growth percent A498 (A498): 94.17%
- melting point: 191 to 193 °C
- Growth percent UO-31 (UO-31): 64.91%
- Growth percent SK-MEL-5 (SK-MEL-5): 98.38%
- Growth percent HOP-92 (HOP-92): 70.17%
- Growth percent K-562 (K-562): 87.84%
- Growth percent HS 578T (HS 578T): 76.42%
- Growth percent SNB-19 (SNB-19): 95.52%
- Growth percent HCT-15 (HCT-15): 94.51%
- Growth percent UACC-257 (UACC-257): 95.39%
- Growth percent SK-MEL-2 (SK-MEL-2): 107.37%
- Growth percent SN12C (SN12C): 97.70%
- Growth percent SW-620 (SW-620): 93.08%
- Growth percent HT29 (HT29): 102.71%
- Growth percent SK-MEL-28 (SK-MEL-28): 104.19%
- Growth percent MDA-MB-435 (MDA-MB-435): 96.99%
- Growth percent OVCAR-3 (OVCAR-3): 101.69%
- Growth percent NCI-H522 (NCI-H522): 96.69%
- Growth percent MALME-3M (MALME-3M): 112.36%
- Growth percent ACHN (ACHN): 96.39%
- Growth percent SR (SR): 85.15%
- Growth percent A549/ATCC (A549/ATCC): 106.37%
- Growth percent HOP-62 (HOP-62): 87.72%
- Growth percent SF-295 (SF-295): 94.34%
